The values below come from patent US20030124104A1, “Probiotic compositions” (priority 2001, published 2003).

As usually defined, the MIC is the lowest concentration that inhibits growth of the organism.

Where “and” joins values, the source holds several entries; their conditions need not be identical. Equal entries are not always repeated. Entries after “also recorded” stand apart in the source; their conditions may differ. Where two headings read alike, the source gives them in different places. Bounds are passed on as bounds.

Common to all, as to type: cell-based
One assay relates to B. subtilis. In words: MIC dilutions of bile acids, B. subtilis.
A further assay concerns B. clausii. The experiment in a line: MIC dilutions of bile acids, B. clausii.
Another assay has as its system S. pneumoniae. In words: MIC dilutions of bile acids, S. pneumoniae.
A further assay has as its system E. faecalis. The experiment in a line: MIC dilutions of bile acids, E. faecalis.
The subject of a further assay is E. Faecium. The experiment in a line: MIC dilutions of bile acids, E. Faecium.
A further assay has as its system S. aureus. The experiment in a line: MIC dilutions of bile acids, S. aureus.
For the next assay, the system named is E. coli. In words: MIC dilutions of bile acids, E. coli.
The test system of another assay is K. pneumoniae. The experiment in a line: MIC dilutions of bile acids, K. pneumoniae.
The next assay has as its system P. mirabilils. In words: MIC dilutions of bile acids, P. mirabilils.

For the compound `C[C@H](CCC(=O)O)[C@H]1CC[C@H]2[C@@H]3CC[C@@H]4C[C@H](O)CC[C@]4(C)[C@H]3C[C@H](O)[C@]12C` [DOC, deoxycholic acid], the MIC against B. subtilis was 78 μg/mL and (0.2) mM; with B. clausii, 78 μg/mL and (0.2) mM; with S. pneumoniae, 20 μg/mL and (0.05) mM; against E. faecalis it was 625 μg/mL and (1.6) mM; with E. Faecium, 625 μg/mL and (1.6) mM; against S. aureus, “≧20 000 μg/mL; also recorded: (≧51.2) mM”. The MIC entry with E. coli (E. coli), in the assay on K. pneumoniae and in the assay on P. mirabilils was “≧20 μg/mL; also recorded: (≧0.05) mM” each time.

On to `C[C@H](CCC(=O)NCCS(=O)(=O)O)[C@H]1CC[C@H]2[C@@H]3CC[C@@H]4C[C@H](O)CC[C@]4(C)[C@H]3C[C@H](O)[C@]12C` [TDOC, tauro-deoxycholic acid], for which the MIC was 195 µg/mL and 400 µM with B. subtilis (Bacillus subtilis, read-out: MIC); 24 µg/mL and ≤ 50 µM in the assay with B. clausii (Shouchella clausii, read-out: MIC); 25000 µg/mL and 51200 µM with S. pneumoniae (Streptococcus pneumoniae, read-out: MIC); 25000 µg/mL and 51200 µM in the assay on E. faecalis (Enterococcus faecalis, read-out: MIC); 3120 µg/mL and 6400 µM with E. Faecium (Enterococcus faecium, read-out: MIC); ≥ 25000 µg/mL and ≥ 51200 µM in the assay with S. aureus (Staphylococcus aureus, read-out: MIC). The MIC against E. coli (Escherichia coli) is ≥ 25000 µg/mL and ≥ 51200 µM; in the assay with K. pneumoniae (Klebsiella pneumoniae, read-out: MIC) it was ≥ 25000 µg/mL and ≥ 51200 µM; in the assay on P. mirabilils (read-out: MIC), ≥ 25000 µg/mL and ≥ 51200 µM.
